Experimental data taken from the supplement of paper PMC7695840.
Where “and” joins values, the source holds several entries; their conditions need not be identical. Identical values can stand only once. Counter-ions that a name gives are not always drawn.

How the values were obtained:
[1] = system: Staphylococcus aureus MW2 delta-mecA (mecA-); experiment: IC50 (growth, competition assay); settings: cefoxitin: subinhibitory
Procedure, shortened: (§1)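 Pre-induced, 1:1-mixed fluorescent S. aureus MW2 mecA+ and ΔmecA strains were grown 20 h at 37 °C, 90% humidity, unshaken, in LB with a daily-set subinhibitory cefoxitin dose, in 1536-well plates. Compounds were given on five- or nine-point 2-fold gradients, in two dye-swapped replicates. DsRed (540/590) and GFP (485/520) were scaled per plate between single-strain control medians, with No Treatment then set to 0.5. Per-strain IC50 was the dose halving the No Treatment signal, or the maximal signal.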

[2] = system: Staphylococcus aureus MW2 (mecA+); experiment: IC50 (growth, competition assay); settings: cefoxitin: subinhibitory
Procedure, shortened: as §1

Row | SMILES | IC50 ([1]; fluorescent label: DsRed) | IC50 ([1]; fluorescent label: GFP) | IC50 ([2]; fluorescent label: DsRed) | IC50 ([2]; fluorescent label: GFP)
1 | O=C1C(SCCO)=C(SCCO)C(=O)c2ccccc21 | < 9.85 µM | < 9.85 µM | 11.8 µM | 16.3 µM
2 | O=C1NC(=O)/C(=C/c2ccc(-c3ccc(F)cc3O)o2)S1 | < 9.85 µM | < 9.85 µM | < 9.85 µM | < 9.85 µM and 13.8 µM
3 | O=S(=O)(c1ccccc1)N(CC(F)(F)F)c1ccc(C(O)(C(F)(F)F)C(F)(F)F)cc1 | < 9.85 µM | < 9.85 µM | 24.6 µM | 29.6 µM
4 | OCc1ccc(-c2ccc(-c3ccc(CO)s3)o2)s1 | < 9.85 µM | < 9.85 µM | 22.4 µM | 33.5 µM
5 | O[C@@H](COc1cccc2ncccc12)CN1CCN([C@@H]2c3ccccc3[C@@H]3[C@H](c4ccccc42)C3(F)F)CC1 | 14.3 µM | < 9.85 µM | 52.2 µM | 42.5 µM
6 | c1ccc2c(CCNc3ccc(Nc4ccncc4)cc3)c[nH]c2c1 | 61 µM | 37.1 µM | 104 µM | 138 µM
7 | C[N+](C)(C)CC(O)CC(=O)[O-] (racemic) [DL-Carnitine hydrochloride] | > 150 µM | 139 µM | > 150 µM | > 150 µM
8 | CCCCCCCCCCCCCCC[C@H](O)[C@H](N)CO (racemic) [DL-erythro-Dihydrosphingosine] | < 9.85 µM | < 9.85 µM | 15.1 µM | 10.4 µM
9 | CCCCCCCCCCCCCCCC(=O)OC(CC(=O)O)C[N+](C)(C)C (racemic) [Palmitoyl-DL-Carnitine chloride] | < 9.85 µM | < 9.85 µM | 12.1 µM | 14.3 µM
10 | CN(C)C[C@H](O)Cn1c2ccc(Br)cc2c2cc(Br)ccc21 (racemic) [Wiskostatin] | < 9.85 µM | < 9.85 µM | 17.6 µM | 20.5 µM
11 | CCCc1c(-c2ccc(O)cc2)nn(-c2ccc(O)cc2)c1-c1ccc(O)cc1 [1,3,5-tris(4-hydroxyphenyl)-4-propyl-1H-pyrazole] | < 9.85 µM | < 9.85 µM | 12.5 µM | 20.3 µM
12 | O=C(/C=C/c1ccccc1)c1ccc(O)cc1O [2',4'-DIHYDROXYCHALCONE] | 18.7 µM | 17.1 µM | 91.7 µM | 111 µM
13 | O=C(C=Cc1ccc(O)cc1)c1ccccc1O [2',4-DIHYDROXYCHALCONE] | 26.7 µM | 23.8 µM | 40.6 µM | 58 µM
14 | c1ccc2c(Cc3c[nH]c4ccccc34)c[nH]c2c1 [3,3'-DIINDOLYLMETHANE] | 21.7 µM | 21.4 µM | 67.4 µM | 105 µM
15 | O=C(/C=C/c1ccccc1)c1ccc(O)cc1 [4'-HYDROXYCHALCONE] | 19.7 µM | 19.6 µM | 77.3 µM | 101 µM
16 | C=CC(C1=CC(=O)C(OC)=CC1=O)c1ccccc1 (stereo unspecified) [4-METHOXYDALBERGIONE] | < 9.85 µM | 13.3 µM | 59.4 µM | 63.4 µM
17 | O=C(O)c1ccc(N2C(=O)/C(=C\c3ccc(-c4ccc([N+](=O)[O-])cc4)o3)C=C2c2ccccc2)cc1 [4E1RCat] | 18 µM | < 9.85 µM | 54.5 µM | 78.7 µM

Row | SMILES | IC50 ([1]; fluorescent label: DsRed) | IC50 ([1]; fluorescent label: GFP) | IC50 ([2]; fluorescent label: DsRed) | IC50 ([2]; fluorescent label: GFP)
18 | NC(N)=NC(=O)c1nc(Cl)c(N2CCCCCC2)nc1N [5-(N,N-hexamethylene)amiloride] | 46.2 µM | 60.9 µM | 90.9 µM | 108 µM
19 | O=c1[nH]cc(F)c(=O)[nH]1 [5-Fluorouracil] | < 9.85 µM | < 9.85 µM | < 9.85 µM | < 9.85 µM
20 | CC1OC(n2cc(F)c(=O)[nH]c2=O)C(O)C1O (stereo unspecified) [5-fluoro-5'-deoxyuridine] | < 9.85 µM | < 9.85 µM | < 9.85 µM | < 9.85 µM
21 | CC(C)c1cccc(C(C)C)c1N1C(=O)c2ccc(O)cc2C1=O [5HPP-33] | 40.7 µM | < 9.85 µM | 25.8 µM | 111 µM
22 | O=Nc1ccc2oc(=O)ccc2c1 [6-Nitroso-1,2-benzopyrone] | 31 µM | 32.1 µM | 53.1 µM | 57.9 µM
23 | CC(C)c1ccc2c(c1)CC[C@H]1[C@](C)(CN)CCC[C@]21C [18-AMINOABIETA-8,11,13-TRIENE SULFATE] | 55.7 µM | 55.8 µM | 62.5 µM | 79.2 µM
24 | CC(C)c1c(O)ccc2c1CC[C@H]1[C@@](C)(CO)CCC[C@]21C [19-HYDROXYTOTAROL] | 107 µM | 65.8 µM | 77.4 µM | 111 µM
25 | Cc1sc2c(c1C)C(c1ccc(Cl)cc1)=N[C@@H](CC(=O)OC(C)(C)C)c1nnc(C)n1-2 [(+)-JQ1] | 47 µM | 35.2 µM | 96.8 µM | 112 µM
26 | O=C(O[C@@H]1Cc2c(O)cc(O)cc2O[C@@H]1c1cc(O)c(O)c(O)c1)c1cc(O)c(O)c(O)c1 [(-)-Epigallocatechin gallate] | 4.65 µM and < 9.85 µM | 3.45 µM and < 9.85 µM | 27.4 µM and 17.3 µM | 29.7 µM and 46.5 µM
27 | CN1CCN(C2Cc3ccccc3Sc3ccc(Cl)cc32)CC1 (stereo unspecified) [(?)-Octoclothepin maleate] | < 9.85 µM | 29.3 µM | 73.8 µM | 61.8 µM
28 | C[C@H](Oc1cc(-c2cnn(C3CCNCC3)c2)cnc1N)c1c(Cl)ccc(F)c1Cl [(S)-crizotinib] | < 9.85 µM | < 9.85 µM | 75 µM | 101 µM
29 | CCOC(=O)[C@H](CCc1ccccc1)N[C@@H](C)C(=O)N1Cc2ccccc2C[C@H]1C(=O)O [ACCUPRIL] | > 150 µM | > 150 µM | > 150 µM | > 150 µM
30 | CC(=O)Oc1c2c(c(CC=C(C)C)c3c1C(=O)C1=C[C@@H]4CC5C(C)(C)OC(C/C=C(\C)C(=O)O)(C4=O)[C@@]15O3)OC(C)(CCC=C(C)C)C=C2 (stereo partly specified) [ACETYL ISOGAMBOGIC ACID] | < 9.85 µM | < 9.85 µM | 13.5 µM | 17.2 µM
31 | NC(=O)N/N=C/c1ccc([N+](=O)[O-])o1 [ACTIN-N] | 10.5 µM | < 9.85 µM | 16.2 µM | 15 µM
32 | CCCCC[C@H](CC(=O)NO)C(=O)N[C@H](C(=O)N1CCC[C@H]1CO)C(C)C [ACTINONIN] | < 9.85 µM | < 9.85 µM | 27.8 µM | 37.7 µM
33 | CC1CCc2c(N3CCC(O)CC3)c(F)cc3c(=O)c(C(=O)O)cn1c23 (stereo unspecified) [ACUATIM] | < 9.85 µM | < 9.85 µM | < 9.85 µM | < 9.85 µM
34 | CCCCCCCCCCCCCCCCC(C(=O)O)C(O)(CC(=O)O)C(=O)O (stereo unspecified) [AGARIC ACID] | < 9.85 µM | < 9.85 µM | 12.8 µM | 20.6 µM
